Blank lines part the entries; values can stand above or below the molecule they belong to.
Experiments:
cyclooxygenase 1 (COX-1) = molecular target: T1, cyclooxygenase 1 (COX-1) (Ovis aries, UniProt P05979); test: Inhibition of COX-1 (arachidonic acid incubation, PGE2 formation by malondialdehyde quantitation); conditions: 300 μM; COX-1 derived from ram seminal vesicles
T1 sequence (P05979 25-600): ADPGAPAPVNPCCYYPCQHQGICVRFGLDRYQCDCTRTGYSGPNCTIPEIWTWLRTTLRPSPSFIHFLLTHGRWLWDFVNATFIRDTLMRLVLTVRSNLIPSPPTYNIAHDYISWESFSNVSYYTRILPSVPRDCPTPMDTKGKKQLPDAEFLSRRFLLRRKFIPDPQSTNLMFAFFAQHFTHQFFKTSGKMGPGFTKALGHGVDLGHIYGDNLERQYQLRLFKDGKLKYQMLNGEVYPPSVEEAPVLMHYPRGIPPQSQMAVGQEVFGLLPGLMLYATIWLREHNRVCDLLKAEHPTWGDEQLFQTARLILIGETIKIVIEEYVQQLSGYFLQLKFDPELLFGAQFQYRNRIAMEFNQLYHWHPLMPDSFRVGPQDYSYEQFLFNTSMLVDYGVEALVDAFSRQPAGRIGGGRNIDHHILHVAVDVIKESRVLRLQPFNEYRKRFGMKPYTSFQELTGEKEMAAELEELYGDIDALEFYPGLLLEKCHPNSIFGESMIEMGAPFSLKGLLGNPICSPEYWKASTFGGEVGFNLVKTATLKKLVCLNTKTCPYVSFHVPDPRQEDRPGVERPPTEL
Protocol: (§1) The inhibition of COX-I was measured by incubating arachidonic acid with COX-1 derived from ram seminal vesicles. The inhibition of COX-2 was measured by incubation of arachidonic acid with COX-2 derived from sheep placenta. […] In each assay, the formation of prostaglandin E2 (PGE2) was measured by spectrophotometric quantitation of malondialdehyde.

cyclooxygenase 2 (COX-2) = molecular target: T2, cyclooxygenase 2 (COX-2) (Ovis aries, UniProt P79208); test: Inhibition of COX-2 (arachidonic acid incubation, PGE2 formation by malondialdehyde quantitation); conditions: 300 μM; COX-2 derived from sheep placenta
T2 sequence (P79208 17-603): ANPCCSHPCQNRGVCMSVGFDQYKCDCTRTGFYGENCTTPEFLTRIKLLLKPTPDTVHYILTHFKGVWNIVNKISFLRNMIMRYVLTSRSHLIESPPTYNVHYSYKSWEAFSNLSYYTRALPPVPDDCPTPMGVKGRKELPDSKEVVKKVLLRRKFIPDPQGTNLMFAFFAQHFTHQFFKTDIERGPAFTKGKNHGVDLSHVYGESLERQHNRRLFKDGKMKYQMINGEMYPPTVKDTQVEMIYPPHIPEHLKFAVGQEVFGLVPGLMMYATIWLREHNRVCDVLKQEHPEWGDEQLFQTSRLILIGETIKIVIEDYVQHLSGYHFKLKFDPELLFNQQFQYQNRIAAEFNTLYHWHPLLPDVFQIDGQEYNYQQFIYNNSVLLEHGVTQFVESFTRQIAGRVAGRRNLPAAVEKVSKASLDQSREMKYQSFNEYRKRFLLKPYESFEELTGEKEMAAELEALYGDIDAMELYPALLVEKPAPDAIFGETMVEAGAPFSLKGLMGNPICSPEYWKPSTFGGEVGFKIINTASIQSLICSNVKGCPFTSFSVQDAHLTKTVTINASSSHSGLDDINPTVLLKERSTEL
Protocol: as §1

[1] = tested on: adjuvant-induced footpad edema; test: Adjuvant assay (adjuvant-induced footpad edema); assay type: in vivo; conditions: Male Lewis rats; 3 mg/kg, po; dosing day 14 to day 21 post-adjuvant
Protocol: This assay is a model for chronic inflammation. See, for example, […], “Rat Adjuvant Arthritis: A Model of Chronic Inflammation,” Pharmacological Methods in the Control of Inflammation, 363-380 (1989) and references cited therein. In this assay, Male Lewis rats weighing between 180-220 g were lightly anesthetized with an ip injection of 30 mg/kg of sodium pentobarbital (50 mg/mL). Desiccated Mycobacterium butyrium (Difco, 20 mg/mL) suspended in mineral oil was injected (50 μL) at both sides of the base of the tail under the skin. A line was tattooed on both rear paws at 5 mm above the angle of the ankle. The paw volumes, under the line, were measured by volume displacement using a plethysmonmeter (Ugo Basile) at the day of adjuvant injection (day 0) and on day 14. On day 14, animals with paw volumes equal to the mean of paw volumes±SD were randomized into treatment groups. Rats which fell outside±1 SD were not used in the experiment. […] Dosing began on day 14, and continued until final assessment on day 21 post-adjuvant injection. […] This group has a slightly positive volume increase when paw volumes on day 21 are subtracted from day 0 values due to growth of the rat. […] Compounds reducing paw volume by at least about 30% compared to vehicle control group were considered effective in this test.

- melting point: 202 to 222 °C
SMILES: CCC(=O)Oc1c(C(C)(C)C)cc(/C=[N+](\[O-])C(C)(C)C)cc1C(C)(C)C [Example 8, α-(4-propionyloxy-3,5-di-tert-butylphenyl)-N-tert-butylnitrone]

SMILES: CC(=O)Oc1c(C(C)(C)C)cc(/C=[N+](\[O-])C(C)(C)C)cc1C(C)(C)C [Example 1, α-(4-Acetoxy-3,5-di-tert-butylphenyl)-N-tert-butylnitrone]
- Inhibition of COX-1 (cyclooxygenase 1 (COX-1)): did not significantly affect
- Inhibition of COX-2 (cyclooxygenase 2 (COX-2)): did not significantly affect

SMILES: CC(=O)Oc1c(C(C)(C)C)cc(/C=[N+](/C)[O-])cc1C(C)(C)C [Example 9, α-(4-acetoxy-3,5-di-tert-butylphenyl)-N-methylnitrone]
- melting point: 136 to 143 °C

SMILES: COc1ccc2c(c1)c(CC(=O)O)c(C)n2C(=O)c1ccc(Cl)cc1 [indomethacin]
- Paw volume compared to vehicle controls [1]: significantly reduced paw volume
